Results published in patent publication US12221494B2, “Short synthetic peptides and their uses for treating retinal degenerative diseases and/or tissue injuries” (MacKay Memorial Hospital, priority 2019, dated 2025).

Key:
Neuro-2a cells = assay: Glutamate-induced Neuro-2a cell death (LDH release); assay type: cell-based, mouse
Procedure: Neuro-2a cells were seeded in 48-well culture plates (1.5×10^5 cells/well) for 24 h, and then cultured in 0.5 ml fresh 2% FBS-DMEM medium containing 20 μM of the present peptide (7 μg of 6-mer in 0.5 ml medium) for further 4 h. Subsequently, 100 mM glutamate (from 1 M stock and PBS as solvent) was added to cells for further 6 h. Glutamate-induced cell death was quantitatively assessed by measuring lactate dehydrogenase (LDH) activity released into the culture medium by damaged cells. LDH activity was measured using PicoProbe™ LDH-Cytotoxicity Fluorometric Assay Kit (Catalog #K314-500; BioVision) according to the instruction manuals. LDH activity was estimated using an automated microplate reader (UVmax; Molecular Devices, San Francisco, CA) by measuring the fluorescent product (Ex/Em=535/587 nm).
Briefly, cells were pretreated with the designated peptide (i.e., any of SEQ ID NOs: 2 to 11) for 4 h and then treated with 100 mM glutamate for 6 h. The cell death was detected by a commercial lactate dehydrogenase (LDH) Cytotoxicity Assay Kit. Results are depicted in FIG. 1.

[1] = system: Sprague-Dawley rats, retinal ischemia/reperfusion (I/R) injury; assay: TUNEL staining of I/R-injured rat retina (20 h); assay type: in vivo
Procedure: Experimental procedures were approved by the Mackay Memorial Hospital Review Board (Taiwan, R.O.C.). All surgeries were performed under aseptic conditions. Adult 10-week-old male Sprague-Dawley rats (initial body weight=312±11 g) were anesthetized by an intraperitoneal injection of xylazine (10 mg/kg). Peptide was dissolved in 0.85% normal saline to 1 mM and delivered by the subconjunctival injection of 100 μL peptide through a 31-Gneedle with a micro-syringe before the induction of I/R. Normal saline was as a vehicle control. Rat I/R was performed after peptide or vehicle injection for 4 h. Pupils were dilated with 0.5% tropicamide and 0.5% phenylephrine. Body temperature was maintained at 37° C. using a heating blanket After dilation of the pupil, the anterior chamber of the right eye was cannulated with a 27-gauge needle connected to a physiological saline reservoir. The intraocular pressure (IOP) was raised to 110 mmHg by keeping the reservoir at 150 cm above the eye, and retinal ischemia was confirmed by observing whitening of the iris and the loss of the red reflex of the retina. After 90 min of ischemia, the cannulating needle was withdrawn and the IOP was returned to normal pressure, resulting in recovery of the blood supply from the retinal artery and reperfusion injury induced. The reperfusion was evident by the return of the red reflex. Corneal analgesia was achieved using 1 or 2 drops of 0.4% oxybuprocaine hydrochloride, and Ofloxacin ophthalmic gel (0.3%) was applied topically to the eye before and after the procedure. Only the right eye was used in all experiments. A sham procedure was performed at left eye served as an intra-animal control.
After I/R for 20 h, rats (n=6 in each group) were euthanized by an overdose of pentobarbital. Enucleated eyeballs were fixed in 4% PFA for 24 h at 4° C. Fixed retinal tissues were embedded in paraffin. To identify apoptosis of retinal cells, 5 μm sections thick cut through the optic disc, de-paraffinized, rehydrated, incubatedwith 20 μg/mL proteinase K for 10 min, and immunofluorescence staining of apoptotic cells was performed using a terminal deoxynucleotidyl transferase(TdT)-mediated dUTP nick-end labeling (TUNEL)-based kit (Roche Molecular Biochemicals, Indianapolis, IN) according to the manufacturer's instructions. Nuclei were located by counterstaining with Hoechst 33258 for 7 min Sections were observed under an epifluorescence microscope (Zeiss Axioplan 2 imaging; Zeiss, Oberkochen, Germany) equipped with a charge-coupled device (CCD) camera (Zeiss AxioCam HRm, Zeiss) (×400, 6 fields/sample), and quantification was performed using Axiovert software (Zeiss AxioVision Release 4.8.2, Zeiss). Three sections per eye were averaged and the mean of six eyes was recorded as the representative value for each group.
In this example, the neuroprotective effect of the 6-mer variant peptides on neural retina cells and retinal capillary system was investigated using a rat model of I/R injury described in the “Material and Methods” section. Briefly, 6-mer variant peptide (1 mM, 120 μl) was injected into the subconjunctival space of Sprague-Dawley rats for 4 h before the induction of I/R. Then, I/R injury was induced in rat retinas by increasing the intraocular pressure (IOP) in the eye to 110 mmHg for 90 min, followed by 20 h of reperfusion. Subsequently, the level of retinal cell apoptosis was evaluated using TUNEL staining. In addition, the retinal morphology was analyzed with H&E staining 14 days after the I/R injury. Results are summarized in FIGS. 6 to 10, and Tables 6 to 9.

[2] = system: C57BL/6 mice, dry eye induced in controlled environment chamber (CEC); assay: Dry eye animal model, corneal fluorescein staining; assay type: in vivo, mouse; conditions: mice 14 days in CEC, then 100 μM peptide eye drop three times a day for 4 days (Day 4); day 0 score 3±0
Procedure: Dry eyes were induced by placing mice in a controlled environment chamber (CEC) for 14 days in accordance with procedures previously described by Barabino et al (IVOS (2005) 46(8), 2766-2771). Mice placed in the CEC were exposed to a condition, in which relative humidity (RH) was maintained at <25%, temperature at 20-22° C., and airflow at about 15 L/min, for 12 hours per day. Control mice were kept in a normal environment (RH>50%, no air flow, temperature of 20-22° C.) for the same duration.
A common artificial tear formulation, 1% carboxymethylcelllulose (CMC) dissolved in balanced salt solution (BSS) was used as the peptide vehicle. Peptide (100 μM, about 0.7 μg peptide in 10 μl eye drop used for treating one eye) or 1% CMC vehicle was topically administered to eyes three times a day. To test whether the present synthetic peptide could exert any therapeutic action on dry eyes, mice were housed at CEC for 14 days without topical treatment, and then were treated with the present peptide for 4 days.
Animals were anesthetized by an intraperitoneal injection of a mixture of zoletil (6 mg/kg) and xylazine (3 mg/kg). Corneal epithelial injury was determined by staining with topical fluorescein (Fluor-I-Strip, Ayerst Laboratories, Philadelphia, PA). Corneal fluorescein staining was examined with a slit-lamp biomicroscope under cobalt blue light and photographed with a digital camera. Dye staining of the cornea was scored in a blinded manner as follows: score 0 for no punctuate staining; score 1 when less than one third of the cornea was stained; score 2 when two thirds or less was stained; and score 3 when more than two thirds was stained (Horwath-Winter J 2013).
Briefly, mice were housed at controlled environment chamber (CEC) for 14 days (set as Day 0) to induce corneal surface disruption. Corneal fluorescein staining was used to estimate the corneal surface injury and the animal with a staining score of 2 (after mice placed at CEC for 14 days) was subjected to peptide treatment. The 6-mer variant peptide formulation for the treatment of DED was described in Methods. […]

“NH2-(D-Ser)-Leu-Gly-Ala-Glu-Gln-COOH (SLGAEQ; HELM PEPTIDE1{[dS].L.G.A.E.Q}$$$$V2.0; SMILES CC(C)C[C@H](NC(=O)[C@H](N)CO)C(=O)NCC(=O)N[C@@H](C)C(=O)N[C@@H](CCC(=O)O)C(=O)N[C@@H](CCC(N)=O)C(=O)O) [6-mer dS]” was tested. Which “glutamate-induced cell death (LDH release into the medium)” value (Neuro-2a cells; Neuro-2a cells, 20 μM peptide pretreatment 4 h, then 100 mM glutamate 6 h, solvent/glutamate control 7.6±0.8%) did it give?
The value was 1.5±0.5%.

And the “protective effect on Neuro-2a cells (neuroprotective activity), in words” value (Neuro-2a cells; glutamate-induced cell death)?
Its value is “exhibited protective effect on Neuro-2a cells”.

What about the “Number of TUNEL-positive cells in retina” value ([1]; subconjunctival injection 1 mM 4 h before I/R, 20 hours after I/R injury, Vehicle + I/R 27.2 ± 2.7) of the same substance?
Its value is 7.8 ± 1.5 /200 μm.

What about the “I/R-induced retinal cell apoptosis (TUNEL staining), in words” value ([1]; subconjunctival injection prior to I/R, 20 h reperfusion) of the same substance?
The value was “only smaller numbers of green fluorescent nuclei”.

What about the “corneal fluorescein staining score” value [2] of the same substance?
The value was 1.4±0.2 score.
